Experimental data published in PubChem BioAssay AID2060612 (Molecular Pharmacology Branch, DTP, NCI, 2025).

Tested on: 565232-114-T-J1-PDC complex spheroid viability
Assay: Anticancer human tumor 565232-114-T-J1-PDC patient-derived bladder carcinoma cell line growth inhibition [CLK]
Conditions: for IC50: curve of first compound; for viability, T/C: stronger effect = lower value
Description: A high-throughput screen of multi-cell type tumor spheroids was designed to identify active combinations of […] and targeted small molecules. Complex spheroids include a stromal component modeled by human endothelial cells (HUVEC) and fibroblasts modeled by human mesenchymal stem cells (MSCs). The concentration ranges selected for each drug and investigational agent were based upon clinically achievable concentrations if the clinical Cmax of the agent was known.
Compounds. The drugs and investigational agents: cirtuvivint (SM08502; NSC835563), CC-671 (NSC850746), vemurafenib (NSC761431), tapotoclax (NSC804041), sotorasib (NSC818433), adagrasib (NSC831453), MRTX-1133 (NSC836407), BAY2416964 (NSC825713), copanlisib (NSC816437), inavolisib (NSC800729), abemaciclib (NSC768073), osimertinib (NSC779217), entinostat (NSC756642), eltanexor (KPT-8602, NSC794443), venetoclax (NSC766270), ceralasertib (NSC777638), bortezomib (NSC756655), olaparib (NSC753686), talazoparib (NSC767125), alisertib (NSC759677), peposertib (NSC802822), gemcitabine (NSC613327), 5-fluorouracil (NSC19893), SN-38 (NSC673596), oxaliplatin (NSC266046), paclitaxel (NSC125973), and doxorubicin (NSC123127), were obtained from the National Cancer Institute (NCI) Developmental Therapeutics Program Chemical Repository. The FDA-approved anticancer drug set is available from the Developmental Therapeutics Program at https://dtp.cancer.gov/organization/dscb/obtaining/available plates.htm. […] The stock solutions were prepared in dimethyl sulfoxide (DMSO, Sigma-Aldrich, St. Louis, MO, cat. D2650), except for the platinum complexes which were prepared in saline (Quality Biological, Gaithersburg, MD, cat. 114-055-101), at 800-fold the tested concentration and stored at -70 degrees C prior to their use. All drugs and investigational agents were tested over a range starting from a high concentration at or near the clinical Cmax and decreasing in half-log increments. If the clinical Cmax for an agent had not been determined, the highest concentration tested was 10 microM.
Cell Culture. All cells were maintained in an incubator at 37 degrees C and 5% CO2 with 95% humidity. The PDC lines were cultured according to standard operating procedures established by the NCI PDMR. Briefly, all PDCs were thawed and cultured in Matrigel-coated flasks prepared with a working solution of 1X Ham's F-12 nutrient mix, without supplementation (Invitrogen, Waltham, MA, cat. 11765054), 100 U/mL penicillin-streptomycin (Invitrogen, cat. 15140122), and 2.5% Matrigel (Corning Inc., Corning, NY, cat. 354248) for the first three passages. The 947758-054-R-J2-PDC line was cultured in 6B/Colon 1A media, which includes advanced DMEM/F-12 (Thermo Fisher Scientific, cat. 12634028), 10 mM HEPES (Thermo Fisher Scientific, cat. 15630080), 1X GlutaMAX supplement (Thermo Fisher Scientific, cat. 35050061), 0.1 mg/mL primocin (InvivoGen, cat. ant-pm-2), 10% defined fetal bovine serum, heat inactivated (HyClone Laboratories Inc., cat. SH30070.03HI), 1.25 mM N-Acetyl-L-cysteine (Sigma-Aldrich, cat. A9165), 10 mM nicotinamide (Sigma-Aldrich, cat. N0636), 1X B-27 supplement (Thermo Fisher Scientific, cat. 17504044), 1X N-2 supplement (Thermo Fisher Scientific, cat. 17502048), and 10 microM Y-27632 dihydrochloride (Tocris Bioscience, cat. 1254). The 876862-298-R-J1-PDC was cultured in 6E media, which includes all 6B/Colon 1A media components plus 50% L-WRN conditioned media (ATCC, cat. CRL-3276), 50 ng/mL recombinant human EGF recombinant protein (hEGF; Thermo Fisher Scientific, cat. PHG0311), 10 ng/mL recombinant human fibroblast growth factor 10 (hGFG-10; PeproTech, cat. 100-26), 1 ng/mL recombinant human fibroblast growth factor 2 (hFGF-2; PeproTech, cat. 100-18B), and 1 µM prostaglandin E2 (PGE2; Tocris, cat. 2296). The 227483-062-R1-J1-PDC line was cultured in Panc media, containing all 6E components except hFGF-2, with the addition of 500 nM SB-431542 (Selleckchem, cat. S1067) and 10 nM gastrin (Tocris, cat. 3006). […]
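Also: spheroids exposed to compounds for 7 days before readout.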
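For viability, T/C in this document: 100% = DMSO vehicle wells with luminescence normalized to vehicle control.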

COC1C=CCC(C)C(C)S(=O)(=O)NC(=O)c2ccc3c(c2)N(CC2CCC21)CC1(CCCc2cc(Cl)ccc21)CO3 (configuration not stated) + CNC(=O)c1ccc(Nc2nc(OC3CCCC3)c3c(-c4ccc5nc(C)oc5c4)c[nH]c3n2)c(OC)c1
IC50 (second compound 0.0316 µM): 695 nM
IC50 (second compound 0.1 µM): < 31.6 nM
IC50 (second compound 0.316 µM): < 31.6 nM
IC50 (second compound 1 µM): < 31.6 nM
IC50 (second compound 3.16 µM): < 31.6 nM
IC50 (second compound 10 µM): < 31.6 nM
viability, T/C (second compound 0.0316 µM, first compound 0.0316 µM): 89.9%
viability, T/C (second compound 0.0316 µM, first compound 0.1 µM): 103%
viability, T/C (second compound 0.0316 µM, first compound 0.316 µM): 85.8%
viability, T/C (second compound 0.0316 µM, first compound 1 µM): 33.2%
viability, T/C (second compound 0.0316 µM, first compound 3.16 µM): 6.83%
viability, T/C (second compound 0.0316 µM, first compound 10 µM): 3.49%
viability, T/C (second compound 0.1 µM, first compound 0.0316 µM): 43.1%
viability, T/C (second compound 0.1 µM, first compound 0.1 µM): 36.9%
viability, T/C (second compound 0.1 µM, first compound 0.316 µM): 24.7%
viability, T/C (second compound 0.1 µM, first compound 1 µM): 19.2%
viability, T/C (second compound 0.1 µM, first compound 3.16 µM): 7.48%
viability, T/C (second compound 0.1 µM, first compound 10 µM): 5.14%
viability, T/C (second compound 0.316 µM, first compound 0.0316 µM): 24.4%
viability, T/C (second compound 0.316 µM, first compound 0.1 µM): 19.1%
viability, T/C (second compound 0.316 µM, first compound 0.316 µM): 16.4%
viability, T/C (second compound 0.316 µM, first compound 1 µM): 9.76%
viability, T/C (second compound 0.316 µM, first compound 3.16 µM): 5.62%
viability, T/C (second compound 0.316 µM, first compound 10 µM): 3.86%
viability, T/C (second compound 1 µM, first compound 0.0316 µM): 15.8%
viability, T/C (second compound 1 µM, first compound 0.1 µM): 14.5%
viability, T/C (second compound 1 µM, first compound 0.316 µM): 13.3%
viability, T/C (second compound 1 µM, first compound 1 µM): 7.06%
viability, T/C (second compound 1 µM, first compound 3.16 µM): 4.08%
viability, T/C (second compound 1 µM, first compound 10 µM): 2.86%
viability, T/C (second compound 3.16 µM, first compound 0.0316 µM): 11.4%
viability, T/C (second compound 3.16 µM, first compound 0.1 µM): 11%
viability, T/C (second compound 3.16 µM, first compound 0.316 µM): 7.5%
viability, T/C (second compound 3.16 µM, first compound 1 µM): 4.35%
viability, T/C (second compound 3.16 µM, first compound 3.16 µM): 2.97%
viability, T/C (second compound 3.16 µM, first compound 10 µM): 3%
viability, T/C (second compound 10 µM, first compound 0.0316 µM): 14.1%
viability, T/C (second compound 10 µM, first compound 0.1 µM): 9.12%
viability, T/C (second compound 10 µM, first compound 0.316 µM): 6.08%
viability, T/C (second compound 10 µM, first compound 1 µM): 5.45%
viability, T/C (second compound 10 µM, first compound 3.16 µM): 3.56%
viability, T/C (second compound 10 µM, first compound 10 µM): 3.09%
